{"source": "patent US10441620B2", "about": "“Method for protection of bladder from damage” (Wellstrong Biotech Co., Ltd., priority 2016, dated 2019)", "assay": "CUPRAC assay for total antioxidants", "conditions": "absorbance at 450 nm", "description": "The CUPRAC assay was utilized to determine the total antioxidant capacity. This assay relies on the electron donating capabilities of antioxidants to reduce the copper ion. The CUPRAC working solution consisted of 10 mM copper (II) chloride dihydrate, 1M ammonium acetate, and 7.5 mM neocuproine. 0.15 mL of the above three solutions were added to 0.15 mL of each sample and allowed to react for 30 minutes at room temperature, after which the absorbance was read at 450 nm in a Hitachi U-2001 spectrophotometer.", "data": [{"smiles": "O=C1O[C@H]([C@@H](O)CO)C(O)=C1O", "note": "[ascorbic acid]", "values": [{"measurement": "total antioxidant activity (antioxidant value of standard curve)", "result": "27±1.7 mg Ascorbic acid per mOD optical density"}]}]}
